According to patent publication US5853463A, “Marine antifouling agent” (Rohm and Haas Company, priority 1998, dated 1998):
Values after ≈ are worked out from the molar mass of the structure shown. Like-named read-outs stand apart in the source and are kept apart here.

Experiments:
Artemia = assay: Toxicity to Artemia (LC100 of nauplii); assay type: in vivo, Artemia satlina; conditions: 24 Hours, 25° C.
Method: Tests were conducted to determine the toxicity of the marine antifouling agents of the present invention to Artemia. Artemia are indicative of hard fouling organisms.
Substitute ocean water was prepared following ASTM Method D 1141-90. The water was sterilized by filtration through a 0.22 micron cellulose acetate membrane filter. San Francisco Bay Brand® (San Francisco Bay Brand, Inc., Newark, Calif.) Artemia satlina cysts were purchased from a local aquarium supply store. The cysts were hatched in a 250 mL Erlenmeyer flask. The Artemia cysts (0.2 g) were weighed into a sterilized flask. One hundred mL of sterile ASTM sea water was added to the flask. The flask was placed on an orbital shaker set at approximately 150 rotations per minute and 28° C. After 24 hours, the contents of the flask were poured into a separatory funnel. The egg shells were separated from the Artemia nauplii (larvae), as the shells floated to the top. The nauplii were returned to the flask for another 24 hours shaking. The inoculum was prepared by pouring the nauplii into a crystallizing dish 48 hours after the cysts were originally placed on the shaker. […] The number of nauplii in 3 to 4 wells was counted under a microscope. […]
Plates were read under a low magnification microscope 24 and 48 hours after the nauplii were added to the plate. […]

Dunaliella parva = assay: Activity against Dunaliella parva (minimum inhibitory concentration, twofold serial dilution); assay type: cell-based; conditions: 168 h, read-out: MIC (Minimum Inhibitory Concentration)
Method: Tests were conducted to determine the toxicity of the marine antifouling agents of the present invention to Dunaliella. Dunaliella are indicative of soft fouling organisms.
The effectiveness of the marine antifouling agents of the present invention and 3-iodopropargyl N-butyl carbamate (Comparative) against Dunaliella parva were determined by a twofold serial dilution procedure which determined the Minimum Inhibitory Concentration ("MIC") of test compound required to inhibit the growth of an algal inoculum. […]
Cultures were grown in 50 mL of medium contained in 250 mL baffle flasks with silicone sponge closures (Bellco Glass, Vineland, N.J., #2004-00004, 28 mm), on a rotary shaker under constant cool white illumination. […] The culture was standardized to an absorbance of 0.1 at 490 nm by addition of fresh medium. […]
Solutions of test compound at 40x the highest concentration to be tested were prepared in an appropriate solvent. […] At the end of that time, the plates were examined for growth, as evidenced by easily visible green color, using a mirrored microplate reader.
Results were recorded as the median of the three replicate results and are reported below as the minimum concentration to inhibit growth (MIC).

Row | Structure (SMILES) | Artemia LC100 (highest dilution in which all of the nauplii are dead) (Artemia) [ppm] | MIC (Dunaliella parva) [mg/L] | MIC (Dunaliella parva; 23° C., one week incubation, median of three replicates) [mg/L]
1 | O=C(C(=O)c1ccccc1)c1ccccc1 [R=R^1 =H] | 12.5 | 0.6 (≈ 2.85 µM) | 
2 | CCCCNC(=O)OCC#CI [Comparative, 3-iodopropargyl N-butyl carbamate] | 25 |  | 6.2 (≈ 22.1 µM)
